Test results published in article PMC11224111, “Optimizing the pharmacokinetics of an ^211At-labeled RGD peptide with an albumin-binding moiety via the administration of an albumin-binding inhibitor” (European Journal of Nuclear Medicine and Molecular Imaging, 2024).
Like-named read-outs stand apart in the source and are kept apart here. Marks after values point to notes of the source that are not given here.

Legend:
[1] = Biodistribution of [^211At]1 and [^125I]2 in normal mice with ibuprofen or IPBA as albumin-binding inhibitor; settings: 4 h after administration
Experimental: To evaluate the effects of albumin-binding inhibitors in normal mice, [^211At]1 (37 kBq) and [^125I]2 (37 kBq) were intravenously coadministered. […] The total blood albumin (1.1 µmol) in normal mice was calculated from the albumin concentration (3.0 g/dL ≈ 455 µM) in blood, which was informed from Japan SLC, Inc., total blood volume (2.5 mL) as 8% of body weight, and the molecular weight of albumin as 66,000 g/mol. […]
Table S1. Biodistribution of radioactivity 4 h after administration of [^211At]1 and [^125I]2 in normal mice.

[2] = mouse, in vivo; cited from earlier work
[3] = IPBA 10 eq at 1 h postinjection
[4] = ibuprofen 10 eq at 1 h postinjection

Radioactivity, Neck ([1]; IPBA 2 eq at 1 h postinjection): 0.32 (0.10) % injected activity
Radioactivity, Stomach ([1]; IPBA 2 eq at 1 h postinjection): 1.21 (0.07)^ * % injected activity
Radioactivity, L. intestine ([1]; IPBA 5 eq at 1 h postinjection): 0.87 (0.25) % injected activity per gram
Radioactivity, Neck ([1]; IPBA 5 eq at 1 h postinjection): 0.07 (0.02)^ a % injected activity
Radioactivity, S. intestine ([1]; IPBA 5 eq at 1 h postinjection): 1.33 (0.14) % injected activity per gram
Radioactivity, Stomach ([1]; IPBA 5 eq at 1 h postinjection): 1.11 (0.34)^ **,^ a % injected activity
Radioactivity, Kidney [1, 3]: 3.60 (0.43) % injected activity per gram
Radioactivity, Neck [1, 3]: 0.03 (0.02)^ b, c, d % injected activity
Radioactivity, Stomach [1, 3]: 0.94 (0.12)^ ** % injected activity
Radioactivity, Kidney [1, 4]: 3.10 (0.24) % injected activity per gram
Radioactivity, Muscle [1, 4]: 1.19 (0.07) % injected activity per gram
Radioactivity, Neck [1, 4]: 0.36 (0.12)^ *,^ a % injected activity
Radioactivity, Pancreas [1, 4]: 1.78 (0.09) % injected activity per gram
Radioactivity, Stomach [1, 4]: 1.16 (0.03)^ * % injected activity
Radioactivity, Bone ([1]; vehicle at 1 h postinjection): 1.84 (0.12) % injected activity per gram
Radioactivity, Brain ([1]; vehicle at 1 h postinjection): 0.38 (0.09) % injected activity per gram
Radioactivity, Heart ([1]; vehicle at 1 h postinjection): 4.05 (0.98) % injected activity per gram
Radioactivity, Kidney ([1]; vehicle at 1 h postinjection): 3.32 (0.15) % injected activity per gram
Radioactivity, L. intestine ([1]; vehicle at 1 h postinjection): 1.59 (0.38) % injected activity per gram
Radioactivity, Liver ([1]; vehicle at 1 h postinjection): 2.51 (0.07) % injected activity per gram
Radioactivity, Muscle ([1]; vehicle at 1 h postinjection): 1.28 (0.06) % injected activity per gram
Radioactivity, Neck ([1]; vehicle at 1 h postinjection): 0.13 (0.03)^ * % injected activity
Radioactivity, Pancreas ([1]; vehicle at 1 h postinjection): 1.81 (0.05) % injected activity per gram
Radioactivity, Spleen ([1]; vehicle at 1 h postinjection): 2.11 (0.08) % injected activity per gram
Radioactivity, Stomach ([1]; vehicle at 1 h postinjection): 0.80 (0.12) % injected activity
Substance: Ga-DOTA-K([^125I]IPBA)-c(RGDfK) [[^125I]2]
Radioactivity, Blood ([1]; IPBA 2 eq at 1 h postinjection): 7.26 (0.34)^ ***, a, b % injected activity per gram
Radioactivity, Bone ([1]; IPBA 2 eq at 1 h postinjection): 1.22 (0.11) ^a, b % injected activity per gram
Radioactivity, Brain ([1]; IPBA 2 eq at 1 h postinjection): 0.20 (0.03)^ *,^ a % injected activity per gram
Radioactivity, Heart ([1]; IPBA 2 eq at 1 h postinjection): 2.49 (0.13)^ **,^ a % injected activity per gram
Radioactivity, Kidney ([1]; IPBA 2 eq at 1 h postinjection): 3.46 (0.17)^ * % injected activity per gram
Radioactivity, L. intestine ([1]; IPBA 2 eq at 1 h postinjection): 1.14 (0.31)^ ** % injected activity per gram
Radioactivity, Liver ([1]; IPBA 2 eq at 1 h postinjection): 1.58 (0.12)^ a % injected activity per gram
Radioactivity, Lung ([1]; IPBA 2 eq at 1 h postinjection): 4.22 (0.49)^ ***,^ a, b % injected activity per gram
Radioactivity, Muscle ([1]; IPBA 2 eq at 1 h postinjection): 1.02 (0.07)^ *,^ a, b % injected activity per gram
Radioactivity, Pancreas ([1]; IPBA 2 eq at 1 h postinjection): 1.41 (0.10)^ *,^ a, b % injected activity per gram
Radioactivity, S. intestine ([1]; IPBA 2 eq at 1 h postinjection): 1.28 (0.03)^ **,^ a % injected activity per gram
Radioactivity, Spleen ([1]; IPBA 2 eq at 1 h postinjection): 1.15 (0.11)^ *,^ a, b % injected activity per gram
Radioactivity, Blood ([1]; IPBA 5 eq at 1 h postinjection): 2.06 (0.24)^ ***, a, b, c % injected activity per gram
Radioactivity, Bone ([1]; IPBA 5 eq at 1 h postinjection): 0.73 (0.06)^ **,^ a, b, c % injected activity per gram
Radioactivity, Brain ([1]; IPBA 5 eq at 1 h postinjection): 0.15 (0.02)^ a % injected activity per gram
Radioactivity, Heart ([1]; IPBA 5 eq at 1 h postinjection): 0.83 (0.09)^ **,^ a, b, c % injected activity per gram
Radioactivity, Kidney ([1]; IPBA 5 eq at 1 h postinjection): 3.52 (0.08)^ *, b % injected activity per gram
Radioactivity, Liver ([1]; IPBA 5 eq at 1 h postinjection): 1.20 (0.12)^ *,^ a, b, c % injected activity per gram
Radioactivity, Lung ([1]; IPBA 5 eq at 1 h postinjection): 1.92 (0.16)^ **,^ a, b, c % injected activity per gram
Radioactivity, Muscle ([1]; IPBA 5 eq at 1 h postinjection): 0.47 (0.04)^ **,^ a, b, c % injected activity per gram
Radioactivity, Pancreas ([1]; IPBA 5 eq at 1 h postinjection): 0.79 (0.10)^ **,^ a, b, c % injected activity per gram
Radioactivity, Spleen ([1]; IPBA 5 eq at 1 h postinjection): 0.93 (0.58)^ a, b % injected activity per gram
Radioactivity, Blood [1, 3]: 0.95 (0.12)^ **, a, b, c, d % injected activity per gram
Radioactivity, Bone [1, 3]: 0.77 (0.07)^ **,^ a, b, c % injected activity per gram
Radioactivity, Brain [1, 3]: 0.15 (0.03)^ a % injected activity per gram
Radioactivity, Heart [1, 3]: 0.58 (0.10)^ ***,^ a, b, c % injected activity per gram
Radioactivity, L. intestine [1, 3]: 0.98 (0.31) ^*, b % injected activity per gram
Radioactivity, Liver [1, 3]: 0.84 (0.06)^ a, b, c % injected activity per gram
Radioactivity, Lung [1, 3]: 1.33 (0.09)^ ***,^ a, b, c % injected activity per gram
Radioactivity, Pancreas [1, 3]: 0.60 (0.15)^ a, b, c, d % injected activity per gram
Radioactivity, S. intestine [1, 3]: 1.17 (0.13)^ a % injected activity per gram
Radioactivity, Spleen [1, 3]: 1.00 (0.19)^ **,^ a, b % injected activity per gram
Radioactivity, Blood [1, 4]: 10.19 (0.64)^ ***, a % injected activity per gram
Radioactivity, Bone [1, 4]: 1.56 (0.16)^ a % injected activity per gram
Radioactivity, Brain [1, 4]: 0.25 (0.05)^ a % injected activity per gram
Radioactivity, Heart [1, 4]: 3.24 (0.29)^ * % injected activity per gram
Radioactivity, L. intestine [1, 4]: 1.87 (0.66) ^* % injected activity per gram
Radioactivity, Liver [1, 4]: 1.81 (0.24)^ a % injected activity per gram
Radioactivity, Lung [1, 4]: 6.02 (0.99)^ *,^ a % injected activity per gram
Radioactivity, S. intestine [1, 4]: 1.49 (0.12)^ * % injected activity per gram
Radioactivity, Spleen [1, 4]: 1.49 (0.18)^ a % injected activity per gram
Radioactivity, Blood ([1]; vehicle at 1 h postinjection): 13.28 (0.80)^ *** % injected activity per gram
Radioactivity, Lung ([1]; vehicle at 1 h postinjection): 7.38 (0.61)^ * % injected activity per gram
Radioactivity, S. intestine ([1]; vehicle at 1 h postinjection): 1.94 (0.14)^ ** % injected activity per gram
Radioactivity, Blood [2]: 11.80 (0.75) % injected activity per gram
Radioactivity, Bone [2]: 1.50 (0.26) % injected activity per gram
Radioactivity, Brain [2]: 0.29 (0.03) % injected activity per gram
Radioactivity, Heart [2]: 3.81 (0.18) % injected activity per gram
Radioactivity, Kidney [2]: 3.70 (0.65) % injected activity per gram
Radioactivity, L. intestine [2]: 1.20 (0.25) % injected activity per gram
Radioactivity, Liver [2]: 1.96 (0.18) % injected activity per gram
Radioactivity, Lung [2]: 5.60 (0.52) % injected activity per gram
Radioactivity, Muscle [2]: 1.32 (0.16) % injected activity per gram
Radioactivity, Neck [2]: 0.09 (0.02) % injected activity
Radioactivity, Pancreas [2]: 2.05 (0.25) % injected activity per gram
Radioactivity, S. intestine [2]: 1.58 (0.31) % injected activity per gram
Radioactivity, Spleen [2]: 1.61 (0.12) % injected activity per gram
Radioactivity, Stomach [2]: 0.87 (0.11) % injected activity
